Results as given in US11911483B2, “Modified self-immolating moieties for use in prodrugs and conjugates and methods of using and making” (BRISTOL-MYERS SQUIBB COMPANY, priority 2018, dated 2024).

Columns and labels:
Cathepsin B = Cathepsin B (Homo sapiens, UniProt P07858); assay: Cathepsin B cleavage of linkers; assay type: biochemical; details: Cathepsin B buffer pH 5.5, 37° C.
Experimental: The following procedure was used for testing the cathepsin B cleavage of linkers.
7.5 μL of test compound (0.5 mM in DMSO) was transferred to individual tube containing 135 μl of Cathepsin B buffer (25 mM Sodium Acetate, 1 mM EDTA, 1 mM DTT, pH 5.5) and the digestion was started by the addition of 7.5 μl of the diluted Cathepsin B enzyme (Activated, 1.45 μM, 0.1 units). The samples were incubated at 37° C. for 24 h. After 24 h, a 20 μL aliquot was taken and quenched with 80 μL of 75:25:0.1 MeOH:acetonitrile:formic acid. Negative control was also included, without the addition of Cathepsin B. A control compound (structure below) was digested similarly and included as positive control. After quenching, all samples were held at −20° C. for 1 h and further centrifuged at 14,000 rpm for 5 min. The supernatant was transferred to a fresh tube and put in an UPLC autosampler for analysis, per the procedure of the preceding example.
In the above structure, “Tub” denotes a tubulysin analog (Cheng et al., U.S. Pat. No. 8,394,922 B2 (2013). The valine-citrulline (Val-Cit) dipeptide is a known substrate for cathepsin B.

[1] = Blood serum stability in mouse serum; assay type: in vitro ADME
Experimental: (§1) The samples were incubated at 37° C. for 0, 1, 2, 4, and 24 hours. After each of the time points, an aliquot of 20 μl was taken from the samples and quenched with 60 μl of 75:25:0.1 MeOH:acetonitrile:formic acid. After quenching, all samples were held at −20° C. for 1 hour and further centrifuged at 14000 rpm for 15 mins. The supernatant was transferred to a fresh vial and stored at −20° C. until analysis. Samples were analyzed using LC-MS/MS on Agilent 6530 Q-TOF mass spectrometer connected to an Agilent 1290 UPLC. 3 μL of samples were injected onto a Waters BEH C18 Column (2.1×50 mm, 1.7 μm) maintained at 60° C. […] The total run time is 9.5 min.

[2] = Blood serum stability in human serum; assay type: in vitro ADME; details: 37° C.
Experimental: as §1

With `CCCCOc1nc(N)c2nc(O)n(Cc3ccc(CN(CCCC)C(=O)OCc4ccc(NC(=O)[C@H](CCCNC(N)=O)NC(=O)[C@@H](NC(=O)[C@H](CCC(=O)O)NC(=O)CCCCCN5C(=O)C=CC5=O)C(C)C)cc4)cc3)c2n1` [Compound B] the “Cathepsin B Cleavage (% cleaved after 24 hours)” value (Cathepsin B) was 100 % cleaved, the “Stability in Mouse Serum (% cleaved after 24 hours)” value ([1]; mouse serum, 37° C., 24 hours) was 50 % cleaved and the “Stability in mouse serum (in words)” value ([1]; text summary of Table C) was “unstable in mouse serum”. The “Stability in Human Serum (% cleaved after 24 hours)” value [2] was 0 % cleaved.
